Assay results as given in patent US20230098646A1, “NEUROMODULATION DEVICES AND RELATED METHODS” (Massachusetts Institute of Technology, priority 2021, published 2023).
Where a SMILES comes first, the peptide text is derived from it. The star is where a group is joined. Cbz = O=C(OCc1ccccc1)*

Columns and labels:
C2C12 cells = test: Extract exposure test (ISO), cell viability by ATP quantitation (CellTiter-Glo); format: cell-based; conditions: 40 um MG-132, positive control, vs negative control (p<0.05)
Procedure: An extract exposure test following ISO norms was performed to evaluate the toxicity of the neuroprosthesis material. 0.2 gm of material were added to 1 mL of DMEM culture medium and stirred at 37° C. for 24 hours or 7 days to create the extract samples. 100 uL of fetal bovine serum were added to 900 uL aliquots of the samples and used to treat C2C12 cells plated in a 96 well plate in triplicate. A negative control of untreated media and positive control of media containing 40 um MG-132, a small molecule proteasome inhibitor, were also performed. At 24 and 72 hours, cell viability was measured through quantitation of ATP using CellTiter-Glo (Promega) using a Tecan M1000Pro.

[1] = tested on: lower esophageal sphincter; test: Glucagon infusion through the neuroprosthesis microfluidic channel into the lower esophageal sphincter, intraluminal manometry; format: in vivo, swine
Procedure: The neuroprosthesis' distal tip was implanted in the lower esophageal sphincter and glucagon was infused through the microfluidic channel. This chemical stimulation yielded relaxation of the sphincter within 10-20 s. […] Muscle tone returned within 1.5 minutes whereupon repeated infusions led to relaxation. Injection of saline produced no measurable effect and served as negative a control.
Following validation of the safety, efficacy, and biocompatibility, the prosthesis was implanted Yorkshire swine (n=2, 94 kg & 70 kg). The optimized electrical stimulation parameters were programmed into the controller. A pump primed the microfluidic channel and injected 5mg/mL glucagon per neurochemical stimulus.
To characterize and validate the neuroprosthesis' ability to sense and create artificial peristalsis, a fluoroscopic pellet study was conducted. Barium sulfate (Bracco E-Z-HD Barium Sulfate for Suspension (98% w/w), Patterson Veterinary) was mixed with a sodium alginate solution (Sigma) in a 50:50 volume by weight ratio. After 10 minutes of sonication at 30 deg C., the suspension was pipetted into a custom silicone mold sized for a triple zero capsule. After 24 hours, these pellets were hydrated with a 2M CaCl2 solution for at least 2 hours and rinsed with PBS for 72 hours. They were then placed in the esophagus using the endoscope. Stimulation and sensing were performed by the neuroprosthesis and the pellet was radiographically visualized using fluoroscopy. Further, intraluminal manometry studies were performed (n=4, swine) to characterize changes in esophageal reflexes and pressures following tool-based tissue manipulation and neuroprosthesis implantation as well as capture artificial peristalsis created by the neuroprosthesis. An intraluminal manometer (Endoflip, Medtronic) was inserted into the middle and lower esophagus using an overtube to profile distensibility, pressure, pattern of motility and minimal diameter of the esophagus. […] Electromyography was recorded from the electrodes during stimulation and rest periods. […]

## CC(C)C[C@@H](C=O)NC(=O)[C@H](CC(C)C)NC(=O)[C@H](CC(C)C)NC(=O)OCc1ccccc1 [MG-132] (Cbz-Leu-Leu-Leu-aldehyde)
C2C12 cells
  cell viability: significantly decreased cell viability

## glucagon
[1]; after glucagon infusion through microfluidic channel, distal tip in lower esophageal sphincter
  time to relaxation of the sphincter: 10 to 20 s
[1]; after glucagon infusion, repeated infusions again led to relaxation
  time until muscle tone returned: ≤ 1.5 min
[1]; microfluidic infusion by the neuroprosthesis, 5mg/mL glucagon per stimulus, tonic LES at rest
  relaxation of the LES on glucagon infusion: yielded relaxation of this LES
